The record followed here is ChEMBL document CHEMBL1201862, “PubChem BioAssay data set” (2004).

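Five concentrations, 48 hours, 96-well plates. GI50 is the concentration that inhibits growth by half.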 Activity calls are given as the source filed them. No stated cut-off is given here; in the data, active = GI50 up to about 1.1 µM and inactive = higher.

Some test systems named below: ACHN; COLO 205; HCT-116; HL-60; HT-29; KM-20L2; KM12; Malme-3M; NCI-H522; OVCAR-5; SK-MEL-28; UACC-257; UO-31; RPMI-8226.
Holding throughout (assay): inhibition of tumour cell growth, NCI panel, 48 h

In the case of `O=C1CC(c2ccc(Cl)cc2)=Nc2ccccc2N1`, the GI50 in the assay on ACHN is 69.5 µM (inactive); in the assay on COLO 205 it was > 100 µM (inactive); with HCT-116, 28.6 µM (inactive); in the assay with HL-60, 19.3 µM (inactive); in the assay with HT-29 it was > 100 µM (inactive); with KM-20L2, > 100 µM (inactive). The GI50 with KM12 was > 100 µM (inactive); with Malme-3M it was > 100 µM (inactive); in the assay on NCI-H522, 40.9 µM (inactive); with OVCAR-5 it was > 100 µM (inactive); in the assay with SK-MEL-28, > 100 µM (inactive); in the assay with UACC-257, 80.7 µM (inactive). Also, the GI50 with UO-31 is 48 µM (inactive).

Regarding `Cc1cccc(C)c1NC(=O)CCC(=O)NNc1nnc(C)n1N`, the GI50 in the assay on ACHN, in the assay on COLO 205, in the assay with HCT-116, in the assay with HL-60, with HT-29 and in the assay on KM-20L2 was > 100 µM (inactive) each time. The GI50 in the assay on KM12, with Malme-3M, in the assay on NCI-H522, in the assay on OVCAR-5, in the assay with RPMI-8226 and with SK-MEL-28 was > 100 µM (inactive) each time. In addition, the GI50 in the assay on UACC-257 and in the assay with UO-31 was > 100 µM (inactive) throughout.

For `COC(=O)c1c/c(=N\NC(=O)CC(=O)Nc2ccccc2OC)c2ccccc2o1`, the GI50 in the assay on ACHN, with COLO 205, in the assay on HCT-116, in the assay on HL-60, with HT-29 and in the assay on KM-20L2 was > 100 µM (inactive) in each case. Moreover, the GI50 with KM12, in the assay on NCI-H522, with OVCAR-5, with RPMI-8226, in the assay on SK-MEL-28 and in the assay with UO-31 was > 100 µM (inactive) throughout.

In the case of `CCOC(=O)C1N(S(=O)(=O)c2ccc(C)cc2)CCC12c1ccccc1N(C(C)=O)C2C(/C=C/C(=O)OC)=C/C(=O)OC` (stereo unspecified), the GI50 in the assay with ACHN is > 100 µM (inactive); with COLO 205 it was > 100 µM (inactive); in the assay on HCT-116 it was > 100 µM (inactive); with HL-60, 66.8 µM (inactive); in the assay with HT-29 it was > 100 µM (inactive); in the assay on KM-20L2 it was > 100 µM (inactive). Moreover, the GI50 in the assay on KM12 is > 100 µM (inactive); with Malme-3M, > 100 µM (inactive); with NCI-H522, > 100 µM (inactive); with OVCAR-5 it was > 100 µM (inactive); in the assay on RPMI-8226, 62.5 µM (inactive); in the assay on SK-MEL-28, > 100 µM (inactive). Also, the GI50 in the assay on UACC-257 and in the assay with UO-31 was > 100 µM (inactive) throughout.

For `CN(C)CCNc1ccc2ncn3c4ccccc4c(=O)c1c23`, the GI50 in the assay with ACHN is 1.26 µM (inactive); in the assay with COLO 205 it was 0.94 µM (active); in the assay with HCT-116, 0.459 µM (active); with HL-60, 7.73 µM (inactive); in the assay with HT-29, 1.38 µM (inactive); in the assay on KM-20L2, 2.13 µM (inactive). Further, the GI50 was 2.44 µM (inactive) in the assay on KM12; 2.34 µM (inactive) in the assay with Malme-3M; 1.29 µM (inactive) with NCI-H522; 1.66 µM (inactive) in the assay with OVCAR-5; 2.84 µM (inactive) in the assay on RPMI-8226; 3.93 µM (inactive) with SK-MEL-28. Further, the GI50 in the assay on UACC-257 is 2.97 µM (inactive); with UO-31 it was 1.53 µM (inactive).

As for `C/C(=N\Nc1ccc([N+](=O)[O-])cc1)C(=O)N(C)Nc1ccccc1`, the GI50 in the assay with ACHN is 35.4 µM (inactive); in the assay on COLO 205, 58.3 µM (inactive); in the assay on HL-60, 65.3 µM (inactive); in the assay on HT-29 it was 66.8 µM (inactive); in the assay on KM-20L2, 60.4 µM (inactive); in the assay with KM12, 24 µM (inactive). The GI50 in the assay with NCI-H522 was 52.8 µM (inactive); with RPMI-8226, 76 µM (inactive); in the assay on UACC-257 it was 31.6 µM (inactive); in the assay with UO-31 it was 39.9 µM (inactive).

Take `N=C(N)n1ncc(Cl)c(Cl)c1=O`: the GI50 was 3.81 µM (inactive) in the assay on ACHN; 1.88 µM (inactive) in the assay on COLO 205; 1.73 µM (inactive) in the assay on HCT-116; 2.21 µM (inactive) with HL-60; 4.33 µM (inactive) with KM-20L2; 6.5 µM (inactive) in the assay on KM12. Moreover, the GI50 was 2.21 µM (inactive) in the assay on Malme-3M; 1.79 µM (inactive) in the assay with NCI-H522; 15.2 µM (inactive) with OVCAR-5; 2.28 µM (inactive) in the assay with RPMI-8226; 2.32 µM (inactive) in the assay on SK-MEL-28; 2.13 µM (inactive) in the assay on UACC-257. For the same molecule, in the assay on UO-31, the GI50 is 2.38 µM (inactive).

For the molecule `CC1(C)CC(=O)C(=[N+]=[N-])C(=O)C1`, the GI50 in the assay with ACHN, in the assay with COLO 205, in the assay on HCT-116, in the assay on HL-60, with HT-29 and in the assay with KM-20L2 was > 100 µM (inactive) each time. The GI50 in the assay on KM12, in the assay on Malme-3M, with NCI-H522, in the assay on OVCAR-5, in the assay with RPMI-8226 and in the assay with SK-MEL-28 was > 100 µM (inactive) each time. In addition, in the assay on UACC-257, the GI50 is > 100 µM (inactive).

For `O=C(CCC(=O)C1Cc2ccccc2C1=O)Nc1cccc(C(F)(F)F)c1` (stereo unspecified), the GI50 in the assay with ACHN, in the assay on COLO 205, in the assay on HCT-116, in the assay with HL-60, in the assay with HT-29 and in the assay on KM-20L2 was > 100 µM (inactive) in each case. The GI50 with KM12 is > 100 µM (inactive); with Malme-3M, > 100 µM (inactive); in the assay with OVCAR-5 it was > 100 µM (inactive); in the assay with SK-MEL-28, > 10 µM (inactive); with UACC-257, > 100 µM (inactive); with UO-31 it was > 100 µM (inactive).

For the molecule `O=C(CN(c1ccccc1)c1ccccc1)N1c2ccccc2C2C=CC=CC21` (stereo unspecified), the GI50 in the assay on ACHN was 24 µM (inactive); in the assay on COLO 205 it was 11 µM (inactive); with HCT-116, 13.8 µM (inactive); in the assay on HL-60, 7.23 µM (inactive); in the assay on HT-29, 22.2 µM (inactive); with KM-20L2, 24.2 µM (inactive). The GI50 is 27.3 µM (inactive) in the assay on KM12; 21.6 µM (inactive) in the assay with Malme-3M; 18 µM (inactive) in the assay with NCI-H522; 24 µM (inactive) in the assay on OVCAR-5; 8.22 µM (inactive) in the assay on RPMI-8226; 30.4 µM (inactive) in the assay on SK-MEL-28. For the same molecule, the GI50 in the assay with UACC-257 is 18.3 µM (inactive); in the assay with UO-31 it was 30.1 µM (inactive).

Take `COC(=O)C1=CC2OC1(C)C1(CC1)C2=O` (stereo unspecified): the GI50 is 15.3 µM (inactive) in the assay with ACHN; 13.5 µM (inactive) with COLO 205; 13.8 µM (inactive) in the assay with HCT-116; 4.02 µM (inactive) in the assay on HL-60; 12.9 µM (inactive) in the assay with HT-29; 17.5 µM (inactive) in the assay on KM-20L2. For the same molecule, the GI50 was 20.6 µM (inactive) in the assay with KM12; 11.7 µM (inactive) in the assay on Malme-3M; 5.73 µM (inactive) with NCI-H522; 23.8 µM (inactive) with OVCAR-5; 6.85 µM (inactive) in the assay with RPMI-8226; 16.1 µM (inactive) in the assay on UACC-257. In addition, the GI50 in the assay with UO-31 was 22.1 µM (inactive).

For `O=C(Nc1ccc(Cl)c(Cl)c1)C1C(=O)N(c2ccc(Cl)c(Cl)c2)C(=O)/C1=N\O` (stereo unspecified), the GI50 was > 100 µM (inactive) in the assay with ACHN; 19.3 µM (inactive) in the assay on COLO 205; 32.6 µM (inactive) in the assay with HCT-116; 39.4 µM (inactive) in the assay on HT-29; 43.5 µM (inactive) with KM-20L2; > 100 µM (inactive) in the assay with Malme-3M. Moreover, the GI50 in the assay on NCI-H522 is 27.4 µM (inactive); with OVCAR-5, > 100 µM (inactive); in the assay with RPMI-8226, > 100 µM (inactive); in the assay with SK-MEL-28, 25.6 µM (inactive); with UACC-257, 51.2 µM (inactive); with UO-31 it was > 100 µM (inactive).

Take `CCOC(=O)C(C)(C)Oc1ccc2c(=O)cc(-c3ccccc3)oc2c1`: the GI50 is 54.7 µM (inactive) in the assay with ACHN; 19.6 µM (inactive) in the assay with COLO 205; 17.3 µM (inactive) in the assay with HCT-116; 14.1 µM (inactive) in the assay with HL-60; 24.2 µM (inactive) in the assay on KM-20L2; 18.9 µM (inactive) in the assay with KM12. Besides, the GI50 in the assay with Malme-3M was 22.9 µM (inactive); in the assay on NCI-H522 it was 13.9 µM (inactive); in the assay with OVCAR-5 it was > 100 µM (inactive); in the assay on RPMI-8226, 14.1 µM (inactive); with SK-MEL-28, 16.7 µM (inactive); in the assay with UACC-257 it was 17.4 µM (inactive). For the same molecule, the GI50 in the assay on UO-31 was 48.6 µM (inactive).

With `CC12CCC[C@@](C)(C(=O)OC3OC(CO)C(O)C(O)C3O)[C@H]1CCC13CC4CC(OC4(CO)[C@H]1O)[C@@H]23` (stereo partly specified), the GI50 with ACHN, with HCT-116, in the assay with HT-29, in the assay on KM-20L2, in the assay with KM12 and in the assay on Malme-3M was > 100 µM (inactive) each time. Moreover, the GI50 in the assay on NCI-H522, with OVCAR-5, with RPMI-8226, in the assay with SK-MEL-28, in the assay on UACC-257 and in the assay with UO-31 was > 100 µM (inactive) throughout.

Regarding `CC(=O)NC1=C(NCCC(C)C)C(=O)c2ccccc2C1=O`, the GI50 in the assay on ACHN was 0.0301 µM (active); in the assay on COLO 205 it was > 50 µM (inactive); in the assay on HCT-116, > 50 µM (inactive); with HL-60, > 50 µM (inactive); in the assay with HT-29, > 50 µM (inactive); with KM-20L2, > 50 µM (inactive). In addition, the GI50 in the assay with KM12 is > 50 µM (inactive); with Malme-3M, 45.9 µM (inactive); in the assay with NCI-H522, > 50 µM (inactive); in the assay with SK-MEL-28 it was > 50 µM (inactive); in the assay on UACC-257 it was > 50 µM (inactive); in the assay with UO-31 it was > 50 µM (inactive).
